According to US9469645B2, “Compounds and compositions for the treatment of parasitic diseases” (Novartis AG, priority 2009, dated 2016):

Assays:
[1] = test system: 3D7 P. falciparum strain; experiment: parasite proliferation assay in infected red blood cells (SYBR Green I); assay type: cell-based, Plasmodium falciparum; settings: Plasmodium falciparum, 3D7, Erythrocyte, 3D7 strain; read-out: EC50 3D7 strain
Procedure, shortened: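 P. falciparum 3D7 grown in O+ human erythrocytes to 3–8% parasitemia and exposed to compounds. Proliferation read as the increase in parasite DNA. Detection used SYBR Green I in saponin/triton-X/EDTA lysis buffer, with overnight lysis at room temperature.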

[2] = test system: W2 strain; experiment: parasite proliferation assay in infected red blood cells (SYBR Green I), W2 strain; assay type: cell-based; settings: Erythrocyte
Excerpt: Compounds of the invention can be assayed to measure their capacity to inhibit proliferation of parasitemia in infected red blood cells. The proliferation is quantified by the addition of SYBR Green I (INVITROGEN)® dye which has a high affinity for double stranded DNA.

SMILES | EC50 [1] [nM] | EC50 ([2]; Plasmodium falciparum) [nM] | EC50 [2] [nM]
Cc1ccc(Nc2c(-c3ccc(F)cc3)nc3n2CCN(C(=O)C(C)(C)N)C3)cc1Cl [Compound 632] | 15 | 16 | 
CC1(C)c2nc(-c3ccc(F)cc3)c(NC3CCC3)n2CCN1C(=O)CN [Compound 671] | 1290 | 1090 | 
Cc1ccc(Nc2c(-c3ccc(F)cc3)nc3n2CC(=O)N(CCN(C)C)C3(C)C)cc1Cl [Compound 682] | 124 | 111 | 
Cc1ccc(Nc2c(-c3ccc(F)cc3)nc3n2CCN(Cc2ccc(OCCCN(C)C)cc2)C3)cc1 [Compound 183] | 1900 |  | 1340
NC(C(=O)N1CCn2c(nc(-c3ccc(F)cc3)c2Nc2ccc(Cl)c(F)c2)C1)c1ccc(Cl)cc1 (stereo not drawn) [Compound 369] | 110 |  | 84
Cc1ccc(Nc2c(-c3ccc(F)cc3)nc3n2CCN(C(=O)CC2CCCO2)C3)cc1 (stereo not drawn) [Compound 211] | 300 |  | 283
CC(C)(N)C(=O)N1CCn2c(nc(-c3ccccc3)c2Nc2ccccc2)C1 [Compound 8] | 620 |  | 501
N[C@@H](CC1CCC1)C(=O)N1CCn2c(nc(-c3ccc(F)cc3)c2Nc2ccc(Cl)c(F)c2)C1 [Compound 325] | 30 |  | 29
Cc1ccc(Nc2c(-c3ccc(F)c(F)c3)nc3n2CCN(C(=O)C(C)(C)N)C3)cc1 [Compound 379] | 60 |  | 50
Cc1ccc(Nc2c(-c3ccc(F)cc3)nc3n2CCN(C(=O)[C@H](N)CCCCNC(=O)C(F)(F)F)C3)cc1 [Compound 102] | 650 |  | 426
Cc1ccc(Nc2c(-c3ccc(F)cc3)nc3n2CCN(C(=O)C(C)(C)N)C3)cc1C [Compound 637] | 27 | 26 | 
CC(C)(N)C(=O)N1CCn2c(nc(-c3ccc(F)cc3)c2Nc2ccc(F)cc2F)C1 [Compound 79] | 110 |  | 90
N[C@H](Cc1ccccc1)C(=O)N1CCn2c(nc(-c3ccc(F)cc3)c2Nc2ccc(F)cc2)C1 [Compound 20] | 110 |  | 121
Cc1ccc(Nc2c(-c3ccc(F)cc3)nc3n2CCN(C(=O)C(Nc2ccc(C(F)(F)F)cc2Cl)C(C)C)C3)cc1 (stereo not drawn) [Compound 355] | 2810 |  | 2270
O=C(Cn1ccc2ccccc21)N1CCn2c(nc(-c3ccc(F)cc3)c2Nc2ccc(Cl)c(F)c2)C1 [Compound 303] | 540 |  | 439
CC1(C)c2nc(-c3ccc(F)cc3)c(Nc3ccc(F)cc3)n2CCN1C(=O)CNCCCNC(=O)CCc1ccccc1 [Compound 730, N-(3-(2-(2-(4-fluorophenyl)-3-(4-fluorophenylamino)-8,8-dimethyl-5,6-dihydroimidazo[1,2-a]pyrazin-7 (8H)-yl)-2-oxoethylamino)propyl)-3-phenylpropanamide] | 1360 | 474 | 
O=C(CN1CCC(F)(F)C1)N1CCn2c(nc(-c3ccc(F)cc3)c2Nc2ccc(F)cc2)C1 [Compound 57] | 310 |  | 294
CC1(C)c2nc(-c3ccc(F)cc3)c(NC3CCC(F)(F)CC3)n2CCN1C(=O)CN [Compound 660] | 3 | 6 | 
Cc1ccc(Nc2c(-c3ccc(F)cc3)nc3n2CCN(C(=O)C2CCOC2)C3)cc1 (stereo not drawn) [Compound 212] | 1950 |  | 1980

SMILES | EC50 [1] [nM] | EC50 ([2]; Plasmodium falciparum) [nM] | EC50 [2] [nM]
Cc1ccc(Nc2c(-c3ccc(F)cc3)nc3n2CCN(C(=O)C(C)(CO)CO)C3)cc1 [Compound 245] | 2530 |  | 1800
CN1Cc2nc(-c3ccc(F)cc3)c(Nc3ccc(F)c(F)c3)n2C(C)(C)C1 [Compound 611] | 7670 | 5760 | 
CC(C)(N)C(=O)N1CCn2c(nc(-c3ccc(F)cc3)c2Nc2ccc(F)c(C#N)c2)C1 [Compound 636] | 210 | 183 | 
Cc1ccc(Nc2c(-c3ccc(F)cc3)nc3n2CCN(C(=O)Cc2ccc(F)cc2)C3)cc1 [Compound 233] | 10 |  | 15
Cc1cc(C)cc(Nc2c(-c3ccc(F)cc3)nc3n2CCN(C(=O)CN)C3(C)C)c1 [Compound 656] | 6 | 7 | 
CC1(C)c2nc(-c3ccc(F)cc3)c([S+]([O-])c3ccc(F)cc3)n2CCN1C(=O)CN (stereo not drawn) [Compound 720] | 70 | 69 | 
Cc1ccc(Nc2c(-c3ccc(F)cc3)nc3n2CCN(C(=O)CNc2ccccc2)C3)cc1 [Compound 168] | 10 |  | 11
CC(O)CN[C@@H](Cc1ccccc1)C(=O)N1CCn2c(nc(-c3ccc(F)cc3)c2Nc2ccc(Cl)c(F)c2)C1 (stereo partly drawn) [Compound 281] | 820 |  | 596
NCC(=O)N1CCn2c(nc(-c3ccc(F)cc3)c2Nc2cccc(F)c2)C1 [Compound 36] | 50 |  | 34
CN1CCn2c(nc(-c3ccc(F)cc3)c2Nc2ccc(F)c(Cl)c2)C1(C)C [Compound 627] | 170 | 194 | 
Cc1ccc(Nc2c(-c3cccc(C)c3)nc3n2CCNC3)cc1 [Example 266, 2-m-tolyl-N-p-tolyl-5,6,7,8-tetrahydroimidazo[1,2-a]pyrazin-3-amine] | 1170 |  | 1310
Cc1ccc(Nc2c(-c3ccc(F)cc3)nc3n2CCN(C(=O)[C@@H](O)C(C)(C)C)C3)cc1 [Compound 110] | 20 |  | 15
Fc1ccc(Nc2c(-c3ccc(F)cc3)nc3n2CCN(Cc2ccccc2)C3)cc1 [Compound 48] | 1840 |  | 1750
CC(C)(C)Nc1c(-c2ccc(F)cc2)nc2n1CCNC2 [Compound 297, N-tert-butyl-2-(4-fluorophenyl)-5,6,7,8-tetrahydroimidazo[1,2-a]pyrazin-3-amine] | 5290 |  | 8500
CC(=O)NCCCCNCC(=O)N1CCn2c(nc(-c3ccc(F)cc3)c2Nc2ccc(C)cc2)C1 [Compound 154] | 4270 |  | 3410
CC(=O)Nc1ccc(C[C@H](N)C(=O)N2CCn3c(nc(-c4ccc(F)cc4)c3Nc3ccc(C)cc3)C2)cc1 [Compound 160] | 4320 |  | 2390
O=C(CN1CCCC(F)(F)C1)N1CCn2c(nc(-c3ccc(F)cc3)c2Nc2ccc(F)cc2)C1 [Compound 43] | 180 |  | 149
CC(C)(N)C(=O)N1CCn2c(nc(-c3ccc(F)cc3)c2Nc2ccc(OC(F)F)cc2)C1 [Compound 642] | 2010 | 2500 | 
Cc1ccc(Nc2c(-c3ccc(F)cc3)nc3n2CCN(C(=O)Cc2ccncc2)C3)cc1 [Compound 227] | 90 |  | 103

SMILES | EC50 [1] [nM] | EC50 ([2]; Plasmodium falciparum) [nM] | EC50 [2] [nM]
Cc1ccc(Nc2c(-c3ccc(F)cc3)nc3n2CCN(C(=O)C(N)C(F)(F)F)C3)cc1 (stereo not drawn) [Compound 144] | 50 |  | 73
Cc1ccc(-c2c(-c3ccc(Cl)cc3)nc3cnccn23)cc1 [Compound 24] | 8920 |  | 2860
Cc1ccc(Nc2c(-c3ccc(F)cc3)nc3n2CCN(C(=O)C[C@@H](O)c2ccccc2)C3)cc1 [Compound 135] | 50 |  | 33
C[C@H](N)C(=O)N1CCn2c(nc(-c3ccc(F)cc3)c2Nc2ccc(F)cc2)C1 [Compound 17] | 90 |  | 64
Cc1ccc(Nc2c(-c3ccc(F)cc3)nc3n2CCN(C(=O)C(O)c2ccc(Cl)cc2)C3)cc1 (stereo not drawn) [Compound 133] | 50 |  | 39
Cc1ccc(Nc2c(-c3ccc(F)cc3)nc3n2CC(=O)N(CCN(C)C)C3(C)C)cc1F [Compound 681] | 272 | 196 | 
Fc1ccc(Nc2c(-c3cccc(F)c3)nc3n2CCNC3)cc1 [Compound 191] | 170 |  | 151
N[C@@H](Cc1ccccc1)C(=O)N1CCn2c(nc(-c3ccc(F)cc3)c2Nc2ccc(F)cc2)C1 [Compound 19] | 70 |  | 59
Cc1ccc(Nc2c(-c3ccc(F)cc3)nc3n2CCN(C(=O)c2cc(=O)[nH]c(=O)[nH]2)C3)cc1 [Compound 165] | > 10200 |  | 4640
CC1(C)c2nc(-c3ccc(F)cc3)c(NC3CCC(C(F)(F)F)CC3)n2CCN1C(=O)CN (stereo not drawn) [Compound 662] | 38 | 33 | 
CC(C)(N)C(=O)N1CCn2c(nc(-c3ccc(F)cc3)c2Nc2cc(Cl)cc(Cl)c2)C1 [Compound 644] | 310 | 490 | 
Cc1ccc(Nc2c(-c3ccc(F)cc3)nc3n2CCN(C(=O)N2CCC(N4CCCCC4)CC2)C3)cc1 [Compound 274] | 5140 |  | 5670
Cc1c(Cc2ccccc2)nc2n1[C@H](CCc1ccccc1)C(=O)N[C@@H]2Cc1ccccc1 [Compound 289, (5R,8R)-2,8-dibenzyl-3-methyl-5-phenethyl-7,8-dihydroimidazo[1,2-a]pyrazin-6(5H)-one] | 3880 |  | 747
CC(C)(N)C(=O)N1CCn2c(nc(-c3ccc(F)cc3)c2Nc2cccc(F)c2)C1 [Compound 35] | 120 |  | 105
CCCN(CCC)CC(=O)N1CCn2c(nc(-c3ccc(F)cc3)c2Nc2ccc(C)cc2)C1 [Compound 147] | 2430 |  | 1520
CC1(C)NC2c3nc(-c4ccc(F)cc4)c(Nc4ccc(F)c(F)c4)n3CCN2C1=O (stereo not drawn) [Compound 646, 8-(3,4-difluorophenylamino)-9-(4-fluorophenyl)-2,2-dimethyl-1,2,5,6-tetrahydrodiimidazo[1,2-a:2′,1′-c]pyrazin-3(10bH)-one] | 5680 | 6130 | 
Cc1ccc(Nc2c(-c3ccc(F)cc3)nc3n2CCN(C(=O)C(C)Oc2ccccc2)C3)cc1 (stereo not drawn) [Compound 202] | 160 |  | 102
CCCNC(=O)C[C@H](N)C(=O)N1CCn2c(nc(-c3cccc(F)c3)c2Nc2ccc(Cl)c(F)c2)C1 [Compound 255] | 610 |  | 653
Cc1ccc2nc(-c3ccc(F)cc3)c(Nc3ccc(Cl)c(F)c3)n2c1 [Compound 752] | 1620 | 2380 | 
